# Reference: ChEMBL document CHEMBL1154074, “3D-QSAR with the aid of pharmacophore search and docking-based alignments for farnesyltransferase inhibitors” (Eur J Med Chem, 2009)
# Assay: Inhibition of FTase
row,Compound,pIC50
1,N#Cc1ccc(COCc2cncn2Cc2ccc(C#N)nc2)c(-c2ccc3c(c2)OCO3)c1,8.52
2,Cn1c(=O)cc(-c2cccc(Cl)c2)c2cc(C(O)c3cncn3Cc3ccc(C#N)cc3)ccc21 (centres undefined),7.33
3,N#Cc1ccc(OCc2cncn2Cc2ccc(C#N)c(-c3cccc4ccccc34)c2)cc1,9.49
4,N#Cc1ccc(Cn2cncc2COCc2ccc(C#N)cc2-c2ccc(OC(F)(F)F)cc2)cc1,9.19
5,N#Cc1ccc(Cn2cncc2COCc2ccc(C#N)c(-c3cccc4ccccc34)c2)cc1,8.32
6,N#Cc1ccc(Cn2cncc2Cn2ccc3c(C#N)c(-c4cccc5ccccc45)ccc32)cc1,9.82
7,N#Cc1cn(Cc2cncn2Cc2ccc3c(c2)OCO3)cc1-c1cccc2ccccc12,8.21
8,N#Cc1ccc(Cn2cncc2COCc2ccc(C#N)cc2-c2ccc(C(F)(F)F)cc2)cc1,8.37
9,Cn1c(=O)cc(-c2cccc(Cl)c2)c2cc(COCc3cncn3Cc3ccc(C#N)cc3)ccc21,7.05
10,N#Cc1ccc(Cn2cncc2Cn2cc(C#N)c(-c3cccc4ccccc34)c2)cc1,9.24
11,N#Cc1ccc(Cn2cncc2COCc2ccc(C#N)cc2-c2cccc3c2OCO3)cc1,9.09
12,N#Cc1ccc(Cn2cncc2COc2ccc(Cl)cc2-c2cccc(Cl)c2)cc1,8.4
13,Cn1c(=O)cc(-c2cccc(Cl)c2)c2cc(C(=O)c3cncn3Cc3ccc(C#N)cc3)ccc21,7.54
14,N#Cc1ccc(Cn2cncc2CNCc2ccc(C#N)c(-c3cccc4ccccc34)c2)cc1,8.19
15,N#Cc1ccc(Cn2cncc2COCc2ccc(C#N)cc2-c2cccc3ccccc23)cc1,8.89
16,CC(C)(C)c1ccc(-c2cc(C#N)ccc2COCc2cncn2Cc2ccc(C#N)cc2)cc1,9.36
17,N#Cc1ccc(Cn2cncc2COc2ccc(C#N)c(-c3cccc4ccccc34)c2)cc1,9.42
18,Cn1c(=O)cc(-c2cccc(Cl)c2)c2cc(C(NC=O)c3cncn3Cc3ccc(C#N)cc3)ccc21 (centres undefined),8.68
19,N#Cc1ccc(COCc2cncn2Cc2ccc(Cl)cc2)c(-c2ccc3c(c2)OCO3)c1,8.08
20,N#Cc1ccc(OCc2cncn2Cc2ccc(C#N)c(-c3cccc4ccccc34)c2)nc1,9.05
21,Cn1c(=O)cc(-c2cccc(Cl)c2)c2cc(C(N)c3cncn3Cc3ccc(C#N)cc3)ccc21 (centres undefined),8.42
22,N#Cc1ccc(COCc2cncn2Cc2ccc(C#N)cc2-c2cccc3ccccc23)c(-c2ccc3c(c2)OCO3)c1,8.17
23,N#Cc1ccc(COCc2cncn2Cc2ccc(C#N)cc2-c2cccc3ccccc23)cc1,9.02

# Now from value to molecule:
row,pIC50,Compound
1,8.89,CC(=O)c1ccc(-c2cc(C#N)ccc2COCc2cncn2Cc2ccc(C#N)cc2)cc1
2,9.22,Cc1ccc(-c2cc(C#N)ccc2COCc2cncn2Cc2ccc(C#N)cc2)cc1C
3,8.9,CCOc1ccc(-c2cc(C#N)ccc2COCc2cncn2Cc2ccc(C#N)cc2)cc1
4,8.33,N#Cc1ccc(Cn2cncc2COCc2ccc(C#N)cc2-c2ccc3c(c2)OCO3)nc1
5,8,N#Cc1ccc(COCc2cncn2Cc2ccc(C#N)cc2-c2cccc(Cl)c2)c(-c2cccc(Cl)c2)c1
6,7.02,CS(=O)(=O)c1ccc(Cn2cncc2COCc2ccc(C#N)cc2-c2cccc(Cl)c2)cc1
7,9.31,N#Cc1ccc(Cn2cncc2COCc2ccc(C#N)cc2-c2cccc(OC(F)(F)F)c2)cc1
8,8.85,CCOc1cccc(-c2cc(C#N)ccc2COCc2cncn2Cc2ccc(Cl)cc2)c1
9,8.52,N#Cc1ccc(COCc2cncn2Cc2ccc(C#N)nc2)c(-c2cccc(Cl)c2)c1
10,9.43,N#Cc1ccc(Cn2cncc2COCc2ccc(C#N)cc2-c2cccc(Cl)c2)cc1
11,8.12,COc1ccc(-c2cc(C#N)ccc2COCc2cncn2Cc2ccc(C#N)cc2)cn1
12,8.37,N#Cc1ccc(Cn2cncc2COCc2cnc(C#N)cc2-c2cccc(Cl)c2)cc1
13,8.66,COc1cccc(-c2cc(C#N)ccc2COCc2cncn2Cc2ccc(Cl)cc2)c1
14,7.89,CC(=O)Nc1cccc(-c2cc(C#N)ccc2COCc2cncn2Cc2ccc(C#N)cc2)c1
15,9.21,N#Cc1ccc(Cn2cncc2COCc2ccc(Cl)cc2-c2cccc(Cl)c2)cc1
16,8.36,COc1cccc(-c2cc(C#N)ccc2COCc2cncn2Cc2ccc(C#N)cn2)c1
17,9.43,N#Cc1ccc(Cn2cncc2COCc2ccc(C#N)cc2-c2ccc(Cl)c(Cl)c2)cc1
18,9.24,CCOc1cccc(-c2cc(C#N)ccc2COCc2cncn2Cc2ccc(C#N)nc2)c1
19,9.04,N#Cc1ccc(Cn2cncc2COCc2ccc(C#N)cc2-c2ccc3ccccc3c2)cc1
20,8.77,N#Cc1ccc(Cn2cncc2COCc2ccc(C#N)cc2-c2cccc(Cl)c2)nc1
21,8.82,COc1cccc(-c2cc(C#N)ccc2COCc2cncn2Cc2ccc(C#N)nc2)c1
